Experimental data taken from US8747837B2, “Oncolytic vaccinia virus combination cancer therapy” (priority 2009, dated 2014).
Entries after “also recorded” stand apart in the source; their conditions may differ. Like-named read-outs stand apart in the source and are kept apart here.

Key:
[1] = test system: HepG2 (human HCC line) tumors; assay: HepG2 vascularity study, CD31 vessel counts; format: in vivo, nude mice
Source text: FIG. 6 Anti-vascular effects of JX-594 followed by sorafenib. Top panels show study design of a preclinical study of JX-594 followed by Sorafenib in HepG2 xenograft model. […] Error bars are standard error.
Experimental Methods, Vascularity Study: The study followed longer term effects on vascularity and assessed the efficacy of JX-594+/−Sorafenib in the HepG2 model. HepG2 (human HCC line) tumors were implanted subcutaneously in nude mice. Animals were randomized to seven treatment groups (n=5 per group) to test agents alone, and in combination. Groups were treated with JX-594 (10^6 pfu intratumorally, D1 and D8) and/or Sorafenib (400 μg i.p., daily D15-D29) or PBS (control) on the schedule detailed in (FIG. 6). Tumors were measured using calipers twice weekly. Serum samples were collected on D1, D8, D15, D22 and D29 for measurement of VEGF and GM-CSF levels. Mice were euthanized on D22 or D35. Prior to euthanization, mice were injected with fluorescent microspheres to allow for visualization of tumor perfusion. […]
Results: Vessels were counted in CD31-stained OCT tumor sections; the average number of vessels in 3 fields of 200× magnification are presented in (FIG. 6).

[2] = test system: JX-594 replication in SNU423, SNU398, SNU475, SNU449, SNU387 and U2OS; format: cell-based, vaccinia virus
murine HCC model = format: in vivo
[3] = test system: JX-594 replication in HepG2 (HCC) cells; format: cell-based, vaccinia virus
[4] = test system: JX-594 replication in PLC/PRF/5 human HCC cell line; assay: JX-594 burst size / replication with sorafenib in PLC/PRF/5 cells; format: cell-based, vaccinia virus
B16-F10-LacZ cells = assay: B16 melanoma lung nodule model; format: in vivo, C57BL/6 mice; conditions: combination therapy, FIG. 4 legend
Protocol: Sorafenib Enhances JX-594 Activity Against Murine B16 Melanoma Lung Nodules in Vivo: The combination of JX-594 and sorafenib was tested in an immunocompentent murine model of B16 melanoma tumors. C57BL/6 mice were injected with 3×10^5 B16-F10-LacZ cells IV and treated with Sorafenib alone (HD: 10 mg/kg, LD: 50 μg/kg p.o. daily for 2 weeks), JX594 alone (10^7 pfu IV 3 times per week for 1 week), or in combination (LD or HD sorafenib prior to JX-594 IV) (n=5 per group)(FIG. 4, top panel). At the end of treatment, mice were sacrificed and lungs were fixed and stained to detect B16 surface nodules (n=5 per group). The mean number of tumor nodules at the end of study is shown for each group (FIG. 4).

[5] = test system: JX-594 replication in A2780 (ovarian) cells; format: cell-based, vaccinia virus
hepatocellular carcinoma [6] = assay: Phase 2 trial, IV JX-594 then IT JX-594 then sorafenib in HCC; format: in vivo, human; conditions: Patient JX16-HCC-03, 10 days after sorafenib initiation, after one IV and two IT doses of JX-594
Protocol: JX-594 Treatment Procedure, Patients Treated by IV JX-594 Followed by IT JX-594 Followed by Sorafenib: Patients with unresectable HCC received […] of JX-594 levels (10^9 pfu). For the first dose (Day 1), JX-594 was administred by intravenous infusion over 60 minutes. For the second and third doses (Day 8 and Day 22), JX-594 was administered via imaging-guided intratumoral injection using a multi-pronged Quadrafuse injection needle in roughly spherical tumors, or by a 21-gauge PEIT (percutaneous ethanol injection, multi-pore; HAKKO Medicals; Tokyo, Japan) needle in irregularly-shaped tumors. Starting on Day 25, patients imitated oral sorafenib therapy (400 mg twice daily p.o.). Patients with viable tumor tissue received a Week 12 IT injection of JX-594 (sorafenib treatment was temporarily discontinued 2-3 days before, during and 4-5 days after this booster injection). Imaging (CT, DECE MIR and/or PET-CT) was performed at baseline, Day 25, Week 6 and/or Week 12 to assess response.
Example JX16-HCC-03, IV+IT+IT+Sorafenib Patient: Patient JX16-HCC-03 had hepatocellular carcinoma and was enrolled in a Phase 2 Clinical Trial of JX-594. After completing JX-594 administration (one intravenous and two intratumoral doses) patient received sorafenib.

hepatocellular carcinoma [7] = assay: Sorafenib-only local control group assessed by Choi criteria; format: in vivo, human; conditions: no JX-594, 26 total, 15 assessed, both responders also had radiation therapy
Protocol: Example Sorafenib Only “Control Group” (Figure Included): Historically, the RECIST response rate to sorafenib alone is 1-2% (Llovet et al., 2008; Cheng et al., 2009). For a local control group assessed by Choi criteria, HCC patients that had not received JX-594, but had received sorafenib, were assessed for Choi response. In the hospital where 4 of the 5 JX-594 patients were treated, 26 other patients had received sorafenib in the same period. 7 patients died prior to response assessment, and 15 patients were assessed for Choi response. […] It should be noted that both of these patients had received radiation therapy in conjunction with sorafenib therapy.

hepatocellular carcinoma [8] = assay: Sorafenib therapy following JX-594 in HCC patients (DCE-MRI, Choi); format: in vivo, human
Protocol: Sorafenib Therapy and Tumor Response Assessment Following JX-594: Patients completed the IT clinical trial of JX-594 after 8 weeks on study. Some patients (Patients 1702, 1705, 1002, 1712, 1713) went on to receive standard sorafenib treatment (400 mg twice daily p.o.). Tumors in these patients were followed by DCE-MRI imaging using the same procedures that were used to assess response to JX-594 treatment.
Tumor Vascularity and Response Assessment: DCE MRI (dynamic contrast-enhanced magnetic resonance imaging) was performed at screening (baseline), on Day 5 (optional) and Week 8. For patients going on to Sorafenib, DCE MRI was performed 4 and/or 8 weeks after the start of Sorafenib treatment. DCE MRI assesses tumor size, vascularity and necrosis. The screening/baseline DCE MRI was used as the reference from which to determine time to progression and response rates. […] Tumor progression status and tumor response(s) to JX-594 were assessed radiologically by modified RECIST and modified Choi criteria at the Week 8 visit. Independent review of the images was made by radiologist(s) with expertise in evaluating hepatocellular carcinoma on MRI scans. For evaluation of the intra-hepatic tumors, the proportion of subjects with an objective “complete” or “partial” anti-tumor response was determined based on modified RECIST, and a response as measured by Modified Choi criteria (defined as a ≧10% decrease in the sum of the longest diameter and/or ≧15% decrease in the average tumor signal intensity at MRI).
Tumor Response by Modified Choi Criteria: The Choi response criteria takes into consideration changes in tumor density in addition to tumor diameter (versus RECIST) and data supporting its utility has been published (Choi et al. 2004). Early studies have shown that liver tumors treated with JX-594 can develop significant internal necrosis without a concomitant decrease in size, as has been described in gastrointestinal stromal tumors by Choi et al. (2004). Therefore, intra-hepatic tumors were also measured and response evaluated using a Modified Choi Criteria. The modification of the criteria is necessary as DCE MRI was the imaging modality employed for measuring tumor response. […] The screening/baseline DCE MRI was used as the reference from which to determine response. A response by Modified Choi criteria was defined as a ≧10% decrease in the sum of the longest diameter of the injected tumor(s) and/or ≧15% decrease in the average injected tumor signal intensity on MRI. The average MRI signal intensity (SI) was measured as a percentage of tumor.

[9] = test system: CT26 colorectal tumor cells; assay: CT26 subcutaneous colorectal tumor model; format: in vivo, Balb/c mice; conditions: combination therapy, FIG. 3 legend
Protocol: FIG. 3. […] Kaplan-Meier survival curves are shown for each condition in the middle panel. Effects on tumor volume are shown in the lower panel.
Sorafenib enhances JX-594 activity against murine CT26 primary tumors in vivo: The combination of JX-594 and sorafenib was tested in an immunocompentent murine model of subcutaneously implanted CT26 colorectal tumor cells. Balb/c mice were injected with 3×10^5 CT26 cells subcutaneously and after 11 days, treatment commenced with Sorafenib alone (10 mg/kg p.o. daily for 2 weeks), JX594 alone (10^8 pfu IV 3 times per week for 1 week), or in combination (JX594 prior to Sorafenib, or Sorafenib prior to JX594) (n=4 per group) (FIG. 3, upper panel). Control animals received PBS only. For this experiment, a version of JX-594 was used that expresses murine GM-CSF. Tumors were measured twice weekly until endpoint. Surviving proportions of each study group at each timepoint post treatment are shown (FIG. 3, middle panel). The mean tumor volumes of each study group at each timepoint post-treatment are shown (FIG. 3, lower panel).

hepatocellular carcinoma [10] = conditions: cited from earlier work; for mean tumor necrosis (MRI): sorafenib-only trial

CNC(=O)c1cc(Oc2ccc(NC(=O)Nc3ccc(Cl)c(C(F)(F)F)c3)cc2)ccn1 [Sorafenib]
number of vessels in CD31-stained tumor sections ([1]; Sorafenib alone 400 μg i.p. daily D15-D29, Day 29): transient decrease in the number of vessels
number of vessels in CD31-stained tumor sections ([1]; Sorafenib alone, Day 35): vessel counts increase again
JX-594 replication [2]: inhibited JX-594 replication
angiogenesis (murine HCC model; adjuvant sorafenib after JX-594): inhibited angiogenesis
anti-tumoral efficacy (murine HCC model; adjuvant sorafenib after JX-594, versus either agent alone): significantly improved anti-tumoral efficacy over either agent alone
JX-594 plaque formation and replication (burst) [3]: can inhibit viral growth and replication; also recorded: Inhibits JX-594 Plaque Formation and Replication
JX-594 replication ([4]; 10 μM sorafenib, various MOI, 24 hours infection, plaque assay on Vero cells): inhibited
burst size decreased ([4]; Sorafenib 10 μM added 2 hrs prior to, during or 2 hrs after JX-594 infection, PLC/PRF/5): up to 100 fold
JX-594 efficacy in murine B16 metastatic melanoma model (B16-F10-LacZ cells): enhances JX-594 efficacy
JX-594 plaque formation and replication (burst) [5]: can inhibit viral growth and replication; also recorded: Inhibits JX-594 Plaque Formation and Replication
DCE-MRI perfusion of non-injected extrahepatic tumor (hepatocellular carcinoma [6]): loss of perfusion
patients with a Choi+ response (hepatocellular carcinoma [7]): 2 patients
DCE MRI finding after initiation of Sorafenib (hepatocellular carcinoma [8]; Patient 1702, after three IT doses JX-594, 4 and 8 weeks of Sorafenib (200 mg twice daily p.o.)): acute tumor necrosis
DCE MRI finding after initiation of Sorafenib (hepatocellular carcinoma [8]; Patient 1705, after JX-594, 4 weeks of Sorafenib 400 mg twice daily p.o.): acute tumor necrosis
DCE-MRI finding after initiation of Sorafenib (hepatocellular carcinoma [8]; Patient 1712, after JX-594, 4 weeks of Sorafenib 400 mg twice daily p.o.): acute tumor necrosis
tumor necrosis and vascular shutdown with adjuvant sorafenib (hepatocellular carcinoma [8]; sorafenib after the Week 8 assessment, patients pre-treated with JX-594): dramatic and durable tumor necrosis and vascular shutdown in two patients; also recorded: dramatic and durable tumor necrosis and vascular shutdown in at least three patients
JX-594 efficacy against CT26 subcutaneous solid tumors [9]: enhances JX-594 efficacy
RECIST response rate (hepatocellular carcinoma [10]; sorafenib alone, historical (Llovet et al., 2008; Cheng et al., 2009)): 1-2%
mean tumor necrosis (MRI) (hepatocellular carcinoma [10]; after several courses of treatment (Abou-Alfa et al., 2006)): 27%
mean tumor necrosis (MRI) (hepatocellular carcinoma [10]; at baseline (Abou-Alfa et al., 2006)): 9.8%
